Active and inactive are the calls of the source. The calls are words filed in the database; no cut-off is given here.
How the values were obtained:
[1] = target: Pyruvate dehydrogenase kinase (Homo sapiens) (UniProt Q15119+Q15120+Q16654+Q15118); experiment: Inhibition of PDK in human A-375 cells assessed as reduction in PDH phosphorylation at ser293 residue at 5 to 20 uM after 24 to 48 hrs; assay type: cell-based; conditions: dose 5-20 µM, time 24-48 hrs
[2] = Toxicity in BALB/c mouse assessed as death of animal at 125 to 200 mg/kg, iv administered for 7 days; assay type: organism-based; conditions: in vivo, 168 h, dose 125-200 mg/kg, time 7 day
[3] = system: HaCaT; experiment: Induction of mitochondrial membrane hyperpolarization in human HaCaT cells assessed as JC-1 level at 2.5 to 10 uM incubated for 4 hrs by JC-1 staining based flow cytometry analysis relative to control; assay type: functional; conditions: dose 2.5-10 µM
[4] = Toxicity in BALB/c mouse assessed as animal death at 50 to 100 mg/kg, […] measured after 7 days; assay type: organism-based; conditions: in vivo, 168 h, dose 50-100 mg/kg, time 7 day
[5] = system: A-375; experiment: Effect on mitochondrial bio-energestics in human A-375 cells assessed as increase in OCR/ECRA ratio at 0.25 to 1 uM measured after 4 hrs; assay type: functional, cell-based; conditions: dose 0.25-1 µM
[6] = Toxicity in BALB/c mouse assessed as histopathological changes in liver at 50 to 100 mg/kg, iv measured after 7 days by H and E staining based assay; assay type: organism-based; conditions: in vivo, 168 h, dose 50-100 mg/kg, time 7 day
[7] = Toxicity in BALB/c mouse assessed as histopathological changes in lung at 50 to 100 mg/kg, iv measured after 7 days by H and E staining based assay; assay type: organism-based; conditions: in vivo, 168 h, dose 50-100 mg/kg, time 7 day
[8] = system: HEK-293T; experiment: Induction of mitochondrial membrane hyperpolarization in HEK293T cells assessed as JC-1 level at 2.5 to 10 uM incubated for 4 hrs by JC-1 staining based flow cytometry analysis relative to control; assay type: functional, Homo sapiens; conditions: dose 2.5-10 µM
[9] = system: A-375; experiment: Induction of mitochondrial damage in human A-375 cells assessed as decrease in oxygen consumption rate at 5 uM measured after 4 hrs; assay type: functional, cell-based
[10] = Toxicity in nude mouse xenografted with human A-375 cells assessed as body weight loss at 10 to 40 mg/kg, ip measured once every two days for 14 days; assay type: organism-based; conditions: in vivo, 336 h, dose 10-40 mg/kg, time 14 day
[11] = system: MCF7; experiment: Antiproliferative activity against human MCF7 cells assessed as inhibition of cell viability incubated for 72 hrs by MTT assay; assay type: functional, cell-based; conditions: MCF7, 72 h
[12] = system: HUVEC; experiment: Induction of mitochondrial membrane hyperpolarization in HUVEC assessed as JC-1 level at 2.5 to 10 uM incubated for 4 hrs by JC-1 staining based flow cytometry analysis relative to control; assay type: functional, Homo sapiens; conditions: dose 2.5-10 µM
[13] = system: A-375; experiment: Induction of mitochondrial membrane depolarization in human A-375 cells assessed as increase in JC-1 monomer at 10 uM incubated for 4 hrs by JC-1 staining based flow cytometry analysis; assay type: functional, cell-based
[14] = Apparent permeability across apical to basolateral side in human Caco-2 cells at 2 uM measured after 2 hrs by LC-MS/MS analysis; assay type: ADME, cell-based
[15] = Toxicity in BALB/c mouse assessed as effect on body weight at 125 to 200 mg/kg, iv administered for 7 days and measured once per 2 days; assay type: organism-based; conditions: in vivo, 168 h, dose 125-200 mg/kg, time 7 day
[16] = Efflux ratio of apparent permeability from basolateral to apical side over apical to basolateral side in human Caco2 cells by LC-MS/MS analysis; assay type: ADME, cell-based; conditions: Caco-2
[17] = system: A-375; experiment: Inhibition of glycolysis in human A-375 cells assessed as reduction in extracellular acidification rate at 0.25 to 1 uM measured after 4 hrs; assay type: functional, cell-based; conditions: dose 0.25-1 µM
[18] = system: A-375; experiment: Induction of apoptosis in human A-375 cells assessed as apoptotic cells at 10 uM measured after 48 hrs by Annexin V FITC/PI staining based flow cytometry analysis relative to control; assay type: functional
[19] = system: MDA-MB-231; experiment: Antiproliferative activity against human MDA-MB-231 cells assessed as inhibition of cell viability incubated for 72 hrs by MTT assay; assay type: functional, cell-based; conditions: MDA-MB-231, 72 h
[20] = Toxicity in BALB/c mouse assessed as change in body weight at 40 mg/kg, iv measured once every two days for 7 days; assay type: organism-based; conditions: in vivo, 168 h, time 7 day
[21] = system: A-375; experiment: Induction of apoptosis in human A-375 cells assessed as apoptotic cells at 2.5 uM measured after 48 hrs by Annexin V FITC/PI staining based flow cytometry analysis relative to control; assay type: functional
[22] = Apparent permeability across basolateral to apical side in human Caco-2 cells at 2 uM measured after 2 hrs by LC-MS/MS analysis; assay type: ADME, cell-based
[23] = system: A-375; experiment: Antitumor activity against human A-375 cells xenografted in nude mouse assessed as induction of apoptosis by measuring morphological changes at 40 mg/kg, ip measured once every two days for 14 days by H and E staining based assay; assay type: functional, organism-based; conditions: time 14.0 day
[24] = system: A-375; experiment: Inhibition of cell migration in human A-375 cells incubated for 24 hrs by wound healing assay; assay type: functional, cell-based; conditions: dose 1.5-2.5 µM, DDE = dose-dependent effect
[25] = system: A-375; experiment: Induction of cell cycle arrest in human A-375 cells assessed as accumulation at G1 phase at 7.5 uM incubated for 24 hrs by PI staining based flow cytometry analysis (reference value: 68.07 %); assay type: functional
[26] = Metabolic stability in Sprague-Dawley rat plasma assessed as elimination half life by LC-MS/MS analysis; assay type: ADME, cell-free; conditions: read-out: beta t1/2
[27] = system: A-375; experiment: Induction of cell cycle arrest in human A-375 cells assessed as accumulation at G1 phase at 5 uM incubated for 24 hrs by PI staining based flow cytometry analysis (reference value: 68.07 %); assay type: functional
[28] = system: A-375; experiment: Antitumor activity against human A-375 cells xenografted in nude mouse assessed as decrease in bcl-2 expression at 40 mg/kg, ip measured once every two days for 14 days by immunohistochemistry assay; assay type: functional, organism-based; conditions: time 14.0 day
[29] = system: A-375; experiment: Antitumor activity against human A-375 cells implanted in BALB/c mouse assessed as reduction in tumor weight at 40 mg/kg, ip measured once every two days for 14 days; assay type: functional, organism-based; conditions: time 14.0 day
[30] = system: A-375; experiment: Antitumor activity against human A-375 cells xenografted in nude mouse assessed as reduction in tumor weight at 10 to 40 mg/kg, ip measured once every two days for 14 days; assay type: functional, organism-based; conditions: dose 10-40 mg/kg, time 14.0 day
[31] = system: A-375; experiment: Antiproliferative activity against human A-375 cells assessed as inhibition of cell viability incubated for 72 hrs by MTT assay; assay type: functional, cell-based; conditions: A-375, 72 h
[32] = system: A-375; experiment: Cytotoxicity against human A-375 cells assessed as reduction in cell vaibility measured at 48 hrs in presence of BNPP by MTT assay; assay type: functional, cell-based; conditions: A-375, 48 h
[33] = system: A-375; experiment: Induction of mitochondrial membrane depolarization in human A-375 cells assessed as increase in JC-1 monomer incubated for 4 hrs by JC-1 staining based flow cytometry analysis; assay type: functional, cell-based; conditions: dose 2.5-10 µM, DDE = dose-dependent effect
[34] = system: A-375; experiment: Induction of cell cycle arrest in human A-375 cells assessed as accumulation at G2 phase at 5 uM incubated for 24 hrs by PI staining based flow cytometry analysis (reference value: 7.92 %); assay type: functional
[35] = system: A-375; experiment: Induction of cell cycle arrest in human A-375 cells assessed as accumulation at G2 phase at 2.5 uM incubated for 24 hrs by PI staining based flow cytometry analysis (reference value: 7.92 %); assay type: functional

Q: With `O=C(CCCCCCCCC[P+](c1ccc(C(F)(F)F)cc1)(c1ccc(C(F)(F)F)cc1)c1ccc(C(F)(F)F)cc1)NC(COC(=O)CCCc1ccccc1)(COC(=O)CCCc1ccccc1)COC(=O)CCCc1ccccc1.[Br-]` as the compound, how does the inhibition [1] read?
A: The inhibition was “Active”.

Q: And the Activity [2]?
A: The Activity was “Non-Toxic”.

Q: What about the Activity [3] of the same compound?
A: Its Activity is 12.67%.

Q: And the Activity [4]?
A: Its Activity is “Non-Toxic”.

Q: And the Activity [5]?
A: The Activity was “Active”.

Q: What about the Activity [6] of the same compound?
A: Its Activity is “Non-Toxic”.

Q: And the Activity [7]?
A: Its Activity is “Non-Toxic”.

Q: And the Activity [8]?
A: The Activity was 18.91%.

Q: What about the Activity [9] of the same compound?
A: The Activity was “Active”.

Q: And the Activity [10]?
A: The Activity was “Non-Toxic”.

Q: What about the IC50 [11] of the same compound?
A: The IC50 was 6.02 µM.

Q: What about the Activity [12] of the same compound?
A: The Activity was 16.08%.

Q: And the Activity [13]?
A: Its Activity is “Active”.

Q: What about the Papp A→B at 2 h, 2 µM [14] of the same compound?
A: Its Papp A→B at 2 h, 2 µM is 24.3 ×10⁻⁶ cm/s.

Q: What about the Activity [15] of the same compound?
A: The Activity was “Non-Toxic”.

Q: What about the efflux ratio [16] of the same compound?
A: The efflux ratio was 0.69.

Q: What about the inhibition [17] of the same compound?
A: Its inhibition is “Active”.

Q: And the Activity [18]?
A: The Activity was 50%.

Q: And the IC50 [19]?
A: Its IC50 is 3.71 µM.

Q: And the Activity [20]?
A: The Activity was “Non-Toxic”.

Q: What about the Activity [21] of the same compound?
A: The Activity was 6%.

Q: What about the Papp B→A at 2 h, 2 µM [22] of the same compound?
A: Its Papp B→A at 2 h, 2 µM is 16.8 ×10⁻⁶ cm/s.

Q: What about the Activity [23] of the same compound?
A: Its Activity is “Active”.

Q: What about the inhibition [24] of the same compound?
A: Its inhibition is “Dde”.

Q: What about the Activity [25] of the same compound?
A: The Activity was 80.37%.

Q: What about the half-life [26] of the same compound?
A: Its half-life is 4.28 h.

Q: What about the Activity [27] of the same compound?
A: The Activity was 75.69%.

Q: And the Activity [28]?
A: The Activity was “Active”.

Q: What about the Activity [29] of the same compound?
A: The Activity was “Active”.

Q: What about the Activity [30] of the same compound?
A: The Activity was “Active”.

Q: What about the IC50 [31] of the same compound?
A: Its IC50 is 2.22 µM.

Q: And the IC50 [32]?
A: Its IC50 is 18.9 µM.

Q: And the Activity [33]?
A: The Activity was “Dde”.

Q: What about the Activity [34] of the same compound?
A: Its Activity is 8.85%.

Q: What about the Activity [35] of the same compound?
A: The Activity was 8.58%.

From ChEMBL document CHEMBL5120920, “A Mitochondria-Targeted Phenylbutyric Acid Prodrug Confers Drastically Improved Anticancer Activities” (J Med Chem, 2022)
